Converted amounts (≈) assume the structure as drawn. Where two headings read alike, the source gives them in different places.
How the values were obtained:
[1] = tested on: mitogen or antigen stimulated murine or human lymphocytes; assay: Lymphocyte aggregation assay (PHA-PMA mitogen stimulated); format: cell-based; conditions: aggregates of greater than 100 cells, PHA-PMA stimulation; for minimal effective concentration: Homo sapiens, Lymphocyte, 12 h, read-out: Aggregation Assay Minimum Effective Conc.
Method: (§1) Immunomodulatory 3-aminosteroids (FIGS. 3–7 and Table I) were identified in vitro based on their ability to inhibit homo- or hetero-typic aggregation and subsequent proliferation of mitogen or antigen stimulated murine or human lymphocytes. Human or mouse lymphocytes were isolated from peripheral blood by Ficoll-Hypaque as described (Stoeckert et al., (1990) Exp. Hematol. 18. 1164–1170). For mitogen stimulation, 1×10^5 cells per well were plated in varying amounts of 3-aminosteroid compounds and assayed for aggregation and proliferation after twelve hours of stimulation by PHA-PMA mitogens. […] For antigen stimulation, lymphocytes were isolated from BALBc mice which had been sensitized to Aspergillus fumigatus antigen for three weeks and plated at 1×10^5 cells per well with or without 100 units of Aspergillus fulmigatus antigen. Cells were grown for three days and then scored for cellular aggregates and proliferation as described above in the presence or absence of increasing amounts of Compound-B or analogue compounds. […] Similar results were obtained in assays using antigen mediated response to compounds (not shown). […] All of the active compounds shown in Table I as well as rational modifications of these compounds as depicted in FIGS. 8–10 are embodiments of the invention

[2] = tested on: mitogen or antigen stimulated murine or human lymphocytes; assay: PBMC proliferation assay (tritiated thymidine incorporation); format: cell-based; conditions: for IC50: Homo sapiens, Lymphocyte
Method: as §1

[3] = tested on: D2 naive mice; assay: Bronchial hyperresponsiveness in D2 naive mice (APTI); format: in vivo, mouse; conditions: ip, FIG. 14
Method: DBA2, C57BL6 or B6D2F1 mice, five to six weeks of age, were obtained from the National Cancer Institute or Jackson Laboratories. Animals were housed in high-efficiency particulate filtered air laminar flow hoods in a virus and antigen free facility and allowed free access to pelleted rodent chow and water for three to seven days prior to experimental manipulation. The animal facilities were maintained at 22° C. and the light:dark cycle is automatically controlled (10:14 hour cycle).
Phenotyping and efficacy of pretreatment. Animals either received no pretreatment or were sensitized by nasal aspiration of Aspergillus fumigatus antigen to assess the effect on bronchial hyperresponsiveness, bronchoalveolar lavage and serum IgE. Mice were challenged with Aspergillus or saline intranasally (Monday, Wednesday and Friday for three weeks) and phenotyped twenty-four hours after the last dose. The effect of pretreatment by aminosteroids was used to assess the effect of down-regulating the IL-9 pathway in mice. To determine the bronchoconstrictor response, respiratory system pressure was measured at the trachea and recorded before and during exposure to the drug. Mice were anesthetized and instrumented as previously described. (Kleeberger et al., (1990) Am. J. Physiol. 258, L313–320; Levitt et al., (1995) Clin. Exp. Allergy 25, 61–63; Ewart et al., (1995) J. Appl. Physiol. 79, 560–566). Airway responsiveness was measured to one or more of the following: 5-hydroxytryptamine, acetylcholine, atracurium or a substance-P analogue. A simple and repeatable measure of the change in peak inspiratory pressure following bronchoconstrictor challenge was used which has been termed the Airway Pressure Time Index (APTI). The APTI was assessed by the change in peak respiratory pressure integrated from the time of injection until the peak pressure returns to baseline or plateau.
Active compounds identified in vitro were tested in vivo for their ability to suppress airway hyperresponsiveness, lung eosinophilia and serum Ig levels using assays described above. […]

[4] = tritiated thymidine incorporation, read-out: PBMC Proliferation ASSAY IC50
[5] = FIG. 11 and FIG. 12, mitogen-stimulated lymphocytes, read-out: IC50 for suppression of lymphocyte aggregation and proliferation
[6] = tritiated thymidine incorporation

Structure (SMILES)	minimal effective concentration [1] [µg/mL]	IC50 [2, 4] [µg/mL]	other results
C[C@@H](CC1CCOC1=O)C1CCC2C3CC[C@@H]4C[C@@H](NCCN)CC[C@]4(C)C3CC[C@@]21C (mixture of isomers) [Compound-K]	10	0.31 (≈ 0.697 µM)	
COC(=O)CC[C@H](C)C1CCC2C3CC[C@@H]4C[C@@H](NCCNC(C)C)CC[C@]4(C)C3C[C@@H](O)[C@@]21C (some centres unmarked) [AA]	10	0.42 (≈ 0.856 µM)	
COC(=O)CC[C@H](C)C1CCC2C3CC[C@@H]4C[C@@H](N)CC[C@]4(C)C3C[C@@H](O)[C@@]21C (some centres unmarked) [AB]	10	2.54 (≈ 6.26 µM)	
COC(=O)CC[C@H](C)C1CCC2C3CC[C@@H]4C[C@@H](NCCN)CC[C@]4(C)C3C[C@@H](O)[C@@]21C (some centres unmarked) [AC]	10	0.47 (≈ 1.05 µM)	
COC(=O)CC[C@H](C)C1CCC2C3C(CC[C@@]21C)[C@@]1(C)CC[C@H](NCCN)C[C@H]1C[C@@H]3OC(C)=O (some centres unmarked) [AD]	10	0.29 (≈ 0.591 µM)	
COC(=O)CC[C@@H](C)C1CCC2C3C(CC[C@@]21C)[C@@]1(C)CC[C@H](N2CCNCC2)C[C@H]1C[C@H]3O (some centres unmarked) [AE]	10	0.28 (≈ 0.59 µM)	
COC(=O)CC[C@H](C)C1CCC2C3C[C@@H](O)[C@@H]4C[C@@H](NCCCOCCCCOCCCN)CC[C@]4(C)C3CC[C@@]21C (some centres unmarked) [AF]	10	2.41 (≈ 4.06 µM)	
COC(=O)CC[C@@H](C)C1CCC2C3C[C@@H](O)[C@H]4C[C@H](NCCN)CC[C@]4(C)C3CC[C@@]21C (some centres unmarked) [AG]	10		
COC(=O)CC[C@@H](C)C1CCC2C3CC[C@@H]4C[C@@H](NCCN)CC[C@]4(C)C3C[C@H](O)[C@@]21C (some centres unmarked) [AH]	1	0.1 (≈ 0.223 µM)	
C[C@H](CCC(=O)O)C1CCC2C3CC[C@@H]4C[C@H](NCCN)CC[C@]4(C)C3C[C@H](O)[C@@]21C (some centres unmarked) [C]	> 10		
COC(=O)CC[C@H](C)C1CCC2C3CC[C@@H]4C[C@@H](NCCCNCCCCNCCCN)CC[C@]4(C)C3CC[C@@]21C (some centres unmarked) [Compound-D]	10		suppression of bronchial hyperresponsiveness [3]: effective in suppressing bronchial hyperresponsiveness; IC50 [2, 5]: 10 µg/mL (≈ 17.4 µM)
C[C@@H](CNS(C)(=O)=O)C1CCC2C3CC[C@@H]4C[C@@H](NCCN)CC[C@]4(C)C3CC[C@@]21C (some centres unmarked) [Compound-F]		2.88 (≈ 6.35 µM)	
C[C@@H](CNS(C)(=O)=O)C1CCC2C3CC[C@@H]4C[C@@H](NCCN)CC[C@]4(C)C3CC[C@@]21C (some centres unmarked) [Compound-G]	10		
COC(=O)NC[C@@H](C)C1CCC2C3CC[C@H]4C[C@@H](NCCN)CC[C@]4(C)C3CC[C@@]21C (some centres unmarked) [Compound-H]		0.26 (≈ 0.6 µM)	PBMC Proliferation ASSAY IC50 [2, 6]: 0.44 µg/mL
C[C@H](CC1CCOC1=O)C1CCC2C3CC[C@H]4C[C@@H](NCCN)CC[C@]4(C)C3CC[C@@]21C (some centres unmarked) [Compound-J]	1	0.03 (≈ 0.0675 µM)	
C[C@H](CC1CCOC1=O)C1CCC2C3CC[C@H]4C[C@@H](N5CCCNCC5)CC[C@]4(C)C3CC[C@@]21C (some centres unmarked) [Compound-M]	10		
C[C@@H](COc1ccccn1)C1CCC2C3CC[C@@H]4C[C@@H](NCCN)CC[C@]4(C)C3CC[C@@]21C (some centres unmarked) [Compound-N]			Aggregation Assay Minimum Effective Conc. [1]: 1 to 10 µg/mL; PBMC Proliferation ASSAY IC50 [2, 6]: 0.06 µg/mL
C[C@@H](COc1ccccn1)C1CCC2C3CC[C@@H]4C[C@@H](NCCN)CC[C@]4(C)C3CC[C@@]21C (some centres unmarked) [Compound-O]			Aggregation Assay Minimum Effective Conc. [1]: 10 µg/mL; PBMC Proliferation ASSAY IC50 [2, 6]: 0.25 µg/mL
C[C@@H](COc1ccccn1)C1CCC2C3CC[C@@H]4C[C@@H](N5CCNCC5)CC[C@]4(C)C3CC[C@@]21C (some centres unmarked) [Compound-P]	> 10		
C[C@H](CCC(=O)O)C1CCC2C3C(CC[C@@]21C)[C@@]1(C)CC[C@H](NCCN)C[C@H]1C[C@H]3O (some centres unmarked) [E]	> 10		IC50 [2, 5]: > 10 µg/mL
COC(=O)CC[C@H](C)C1CCC2C3CC(O)[C@@H]4C[C@@H](NCCNC(C)C)CC[C@]4(C)C3CC[C@@]21C (some centres unmarked) [R]		0.24 (≈ 0.489 µM)	
COC(=O)CC[C@H](C)C1CCC2C3CC[C@@H]4C[C@@H](NCCN)CC[C@]4(C)C3CC[C@@]21C (some centres unmarked) [S]	10	< 0.1	toxicity remark in PBMC Proliferation ASSAY [2]: toxic
COC(=O)CC[C@H](C)C1CCC2C3C(O)C[C@@H]4C[C@@H](NCCN)CC[C@]4(C)C3CC[C@@]21C (some centres unmarked) [T]	10	2.77 (≈ 6.17 µM)	
CC(C)OC(=O)CC[C@H](C)C1CCC2C3C(O)C[C@@H]4C[C@@H](NCCN)CC[C@]4(C)C3CC[C@@]21C (some centres unmarked) [U]		0.4 (≈ 0.839 µM)	Aggregation Assay Minimum Effective Conc. [1]: 1 to 10 µg/mL
CC(C)OC(=O)CC[C@H](C)C1CCC2C3C(O)C[C@@H]4C[C@@H](NCCN)CC[C@]4(C)C3CC[C@@]21C (some centres unmarked) [V]			Aggregation Assay Minimum Effective Conc. [1]: 10 µg/mL; PBMC Proliferation ASSAY IC50 [2, 6]: 0.41 µg/mL
COC(=O)CC[C@H](C)C1CCC2C3CC[C@@H]4C[C@@H](NCCN5CCCC5)CC[C@]4(C)C3C[C@@H](O)[C@@]21C (some centres unmarked) [W]	10		
COC(=O)CC[C@H](C)C1CCC2C3CC[C@@H]4C[C@@H](NCc5ccccn5)CC[C@]4(C)C3C[C@@H](O)[C@@]21C (some centres unmarked) [X]	10		
COC(=O)CC[C@H](C)C1CCC2C3CC[C@@H]4C[C@@H](NCCNc5ccccc5)CC[C@]4(C)C3C[C@@H](O)[C@@]21C (some centres unmarked) [Y]	10		
COC(=O)CC[C@H](C)C1CCC2C3CC[C@@H]4C[C@@H](NCCC5CCCN5C)CC[C@]4(C)C3C[C@@H](O)[C@@]21C (some centres unmarked) [Z]	10	0.71 (≈ 1.37 µM)	
